Legend:
B-Raf V600E = B-Raf V600E (Homo sapiens, UniProt P15056, V600E); assay: B-Raf V600E biochemical kinase inhibition (AlphaScreen, biotin-MEK1 substrate); conditions: 100 μM ATP
In short: (§1)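 Serial 1:3 dilutions of compound (0.1 mM DMSO stock, eight points) were added first, then ATP to start the reaction at 100 μM final.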

[1] = test system: SKMEL2 melanoma cells (Ras mutation); assay: SKMEL2 cell growth inhibition (ATPlite); type: cell-based; conditions: Homo sapiens, SK-MEL-2, 72 h; SKMEL2, 3 days incubation
In short: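 SKMEL2 cells seeded at 2,000 per well overnight, then exposed to an 8-point 1:3 compound titration (top 10 μM final) for 3 days at 37 °C. ATPlite luminescence used as a measure of cell number to derive IC50.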

[2] = test system: COLO205 colon adenocarcinoma cells (B-Raf V600E); assay: COLO205 cell growth inhibition (ATPlite); type: cell-based; conditions: Homo sapiens, COLO 205, 72 h; COLO205, 3 days incubation
In short: (§2)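 ATPlite luminescence, taken as a cell-number measure, gave IC50 values after a 3-day 37° C, 5% CO2 incubation. Compounds were tested as 8-point threefold titrations, highest final concentration 10 μM, added to cells seeded the day before.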

[3] = test system: A375 melanoma cells (B-Raf V600E); assay: A375 cell growth inhibition (ATPlite); type: cell-based; conditions: Homo sapiens, A-375, 72 h; A375, 3 days incubation
In short: as §2

CYP3A4(BQ) = CYP3A4(BQ) (Homo sapiens, UniProt P08684); assay: CYP3A4(BQ) inhibition (fluorescent substrate); type: in vitro ADME; conditions: read-out: Cyp IC50 3A4(BQ)
CYP3A4(BQ), sequence (P08684 whole entry): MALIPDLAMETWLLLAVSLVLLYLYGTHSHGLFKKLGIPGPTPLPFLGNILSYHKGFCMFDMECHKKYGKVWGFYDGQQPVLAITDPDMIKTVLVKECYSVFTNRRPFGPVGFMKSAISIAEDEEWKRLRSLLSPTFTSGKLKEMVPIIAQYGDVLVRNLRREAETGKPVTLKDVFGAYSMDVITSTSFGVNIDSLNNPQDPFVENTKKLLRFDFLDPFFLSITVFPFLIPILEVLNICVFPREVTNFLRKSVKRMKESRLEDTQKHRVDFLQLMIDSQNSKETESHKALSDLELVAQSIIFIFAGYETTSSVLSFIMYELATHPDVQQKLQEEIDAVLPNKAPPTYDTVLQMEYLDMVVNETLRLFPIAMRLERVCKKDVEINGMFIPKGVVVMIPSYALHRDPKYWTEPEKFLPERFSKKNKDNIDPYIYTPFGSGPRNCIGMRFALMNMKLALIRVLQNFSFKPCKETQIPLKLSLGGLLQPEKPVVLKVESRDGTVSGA
In short: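 Compound, from a 100 mM DMSO stock and diluted 1:1 over 10 points in co-factor mix, was incubated at 37° C with enzyme and a known substrate. Decrease in fluorescent product against concentration gave the IC50.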

c-Raf-1 = c-Raf-1 (Homo sapiens, UniProt P04049); assay: c-Raf-1 biochemical kinase inhibition (AlphaScreen, biotin-MEK1 substrate); conditions: 100 μM ATP
c-Raf-1, sequence (P04049 whole entry): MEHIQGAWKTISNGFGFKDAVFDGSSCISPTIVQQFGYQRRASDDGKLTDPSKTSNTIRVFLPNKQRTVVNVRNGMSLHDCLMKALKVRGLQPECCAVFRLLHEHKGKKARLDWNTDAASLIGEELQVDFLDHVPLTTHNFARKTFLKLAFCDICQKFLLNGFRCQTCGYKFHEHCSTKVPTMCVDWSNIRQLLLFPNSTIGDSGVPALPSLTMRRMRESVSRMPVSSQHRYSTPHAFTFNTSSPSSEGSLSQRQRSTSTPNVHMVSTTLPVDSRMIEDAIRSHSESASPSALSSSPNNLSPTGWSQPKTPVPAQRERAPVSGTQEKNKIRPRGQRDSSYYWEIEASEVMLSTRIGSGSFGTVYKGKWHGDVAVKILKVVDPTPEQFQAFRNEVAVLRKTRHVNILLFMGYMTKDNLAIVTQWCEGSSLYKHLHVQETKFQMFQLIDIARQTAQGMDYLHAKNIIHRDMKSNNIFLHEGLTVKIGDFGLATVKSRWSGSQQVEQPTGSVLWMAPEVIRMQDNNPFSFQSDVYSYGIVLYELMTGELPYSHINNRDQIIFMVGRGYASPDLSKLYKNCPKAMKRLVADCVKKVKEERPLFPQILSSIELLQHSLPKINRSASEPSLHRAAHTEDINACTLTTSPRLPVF
In short: as §1

B-Raf V600E, sequence (P15056 whole entry V600E): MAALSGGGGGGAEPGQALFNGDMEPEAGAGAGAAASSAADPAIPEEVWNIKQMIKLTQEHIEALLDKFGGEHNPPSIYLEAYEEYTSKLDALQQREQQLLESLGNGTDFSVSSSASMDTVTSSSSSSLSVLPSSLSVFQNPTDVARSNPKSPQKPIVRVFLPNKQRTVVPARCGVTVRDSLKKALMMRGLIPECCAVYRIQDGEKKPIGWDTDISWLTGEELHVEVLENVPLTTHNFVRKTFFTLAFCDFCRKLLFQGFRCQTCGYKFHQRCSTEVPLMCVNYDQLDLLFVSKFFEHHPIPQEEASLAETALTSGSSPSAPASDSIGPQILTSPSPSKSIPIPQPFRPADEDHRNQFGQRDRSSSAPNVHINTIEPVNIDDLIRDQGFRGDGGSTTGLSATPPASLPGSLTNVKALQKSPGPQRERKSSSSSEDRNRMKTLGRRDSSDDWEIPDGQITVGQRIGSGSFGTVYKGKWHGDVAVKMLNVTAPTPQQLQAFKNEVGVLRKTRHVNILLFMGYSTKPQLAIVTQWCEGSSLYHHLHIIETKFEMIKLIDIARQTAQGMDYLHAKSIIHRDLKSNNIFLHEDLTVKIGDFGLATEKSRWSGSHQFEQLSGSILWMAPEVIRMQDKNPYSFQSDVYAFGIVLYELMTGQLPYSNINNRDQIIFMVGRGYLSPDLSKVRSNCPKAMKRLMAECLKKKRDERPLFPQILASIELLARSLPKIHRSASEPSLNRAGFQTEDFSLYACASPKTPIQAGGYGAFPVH

Row | IC50 (B-Raf V600E) | IC50 [1] | IC50 [2] | IC50 [3] | IC50 (CYP3A4(BQ)) | IC50 (c-Raf-1) | Structure (SMILES)
1 | < 10 nM | < 10000 nM | < 100 nM | < 1000 nM | > 10000 nM | – | CCCS(=O)(=O)Nc1ccc(F)c(C(=O)c2c[nH]c3ncc(-c4cnn(CCN5CCOCC5)c4)cc23)c1F [P-2177, Propane-1-sulfonic acid (2,4-difluoro-3-{5-[1-(2-morpholin-4-yl-ethyl)-1H-pyrazol-4-yl]-1H-pyrrolo[2,3-b]pyridine-3-carbonyl}-phenyl)-amide]
2 | < 10 nM | > 10000 nM | < 5000 nM | < 1000 nM | > 10000 nM | – | O=C(c1c(F)ccc(NS(=O)(=O)c2ccccc2F)c1F)c1c[nH]c2nccc(Cl)c12 [P-2017, N-[3-(4-Chloro-1H-pyrrolo[2,3-b]pyridine-3-carbonyl)-2,4-difluoro-phenyl]-2-fluoro-benzenesulfonamide]
3 | < 10 nM | > 10000 nM | < 5000 nM | < 1000 nM | > 10000 nM | – | O=C(c1c(F)ccc(NS(=O)(=O)c2cc(F)ccc2F)c1F)c1c[nH]c2nccc(Cl)c12 [P-2018, N-[3-(4-Chloro-1H-pyrrolo[2,3-b]pyridine-3-carbonyl)-2,4-difluoro-phenyl]-2,5-difluoro-benzenesulfonamide]
4 | < 10 nM | > 10000 nM | < 5000 nM | < 1000 nM | > 10000 nM | – | Cc1cnc2[nH]cc(C(=O)c3c(F)ccc(NS(=O)(=O)c4ccccc4F)c3F)c2c1 [P-2014, N-[2,4-Difluoro-3-(5-methyl-1H-pyrrolo[2,3-b]pyridine-3-carbonyl)-phenyl]-2-fluoro-benzenesulfonamide]
5 | < 10 nM | > 10000 nM | – | < 1000 nM | > 10000 nM | < 100 nM | N#Cc1cnc2[nH]cc(C(=O)c3cccc(NS(=O)(=O)c4ccccc4F)c3F)c2c1 [P-2051, N-[3-(5-Cyano-1H-pyrrolo[2,3-b]pyridine-3-carbonyl)-2-fluoro-phenyl]-2-fluoro-benzenesulfonamide]
6 | < 10 nM | – | < 100 nM | < 100 nM | 5000 to 10000 nM | < 10 nM | CCCS(=O)(=O)Nc1ccc(F)c(C(=O)c2c[nH]c3ncc(-c4ccc(C#CCN(CC)CC)nc4)cc23)c1F [P-2222, Propane-1-sulfonic acid (3-{5-[6-(3-diethylamino-prop-1-ynyl)-pyridin-3-yl]-1H-pyrrolo[2,3-b]pyridine-3-carbonyl}-2,4-difluoro-phenyl)-amide]
7 | < 10 nM | > 10000 nM | < 1000 nM | < 1000 nM | > 10000 nM | – | N#Cc1cnc2[nH]cc(C(=O)c3c(F)ccc(NS(=O)(=O)c4ccccc4F)c3F)c2c1 [P-2011, N-[3-(5-Cyano-1H-pyrrolo[2,3-b]pyridine-3-carbonyl)-2,4-difluoro-phenyl]-2-fluoro-benzenesulfonamide]
8 | < 10 nM | – | < 100 nM | < 100 nM | 5000 to 10000 nM | < 10 nM | CCCS(=O)(=O)Nc1ccc(F)c(C(=O)c2c[nH]c3ncc(-c4ccc(OCCCN5CCOCC5)nc4)cc23)c1F [P-2236, Propane-1-sulfonic acid (2,4-difluoro-3-{5-[6-(3-morpholin-4-yl-propoxy)-pyridin-3-yl]-1H-pyrrolo[2,3-b]pyridine-3-carbonyl}-phenyl)-amide]
9 | < 10 nM | > 10000 nM | < 5000 nM | < 1000 nM | 5000 to 10000 nM | – | Cc1cnc2[nH]cc(C(=O)c3c(F)ccc(NS(=O)(=O)c4cccc(F)c4)c3F)c2c1 [P-2016, N-[2,4-Difluoro-3-(5-methyl-1H-pyrrolo[2,3-b]pyridine-3-carbonyl)-phenyl]-3-fluoro-benzenesulfonamide]
10 | < 10 nM | > 10000 nM | – | < 10000 nM | 5000 to 10000 nM | < 10 nM | N#Cc1ccnc2[nH]cc(C(=O)c3c(F)ccc(NS(=O)(=O)c4cccnc4)c3F)c12 [P-2077, Pyridine-3-sulfonic acid [3-(4-cyano-1H-pyrrolo[2,3-b]pyridine-3-carbonyl)-2,4-difluoro-phenyl]-amide]
11 | < 10 nM | – | < 100 nM | < 100 nM | > 10000 nM | < 10 nM | CCCS(=O)(=O)Nc1ccc(F)c(C(=O)c2c[nH]c3ncc(-c4ccc(OCCCN5CCCC5)nc4)cc23)c1F [P-2235, Propane-1-sulfonic acid (2,4-difluoro-3-{5-[6-(3-pyrrolidin-1-yl-propoxy)-pyridin-3-yl]-1H-pyrrolo[2,3-b]pyridine-3-carbonyl}-phenyl)-amide]
12 | < 10 nM | – | < 1000 nM | < 1000 nM | 5000 to 10000 nM | < 10 nM | C#Cc1cnc2[nH]cc(C(=O)c3c(F)ccc(NS(=O)(=O)CCC)c3F)c2c1 [P-2260, Propane-1-sulfonic acid [3-(5-ethynyl-1H-pyrrolo[2,3-b]pyridine-3-carbonyl)-2,4-difluoro-phenyl]-amide]
13 | < 10 nM | – | < 1000 nM | < 100 nM | > 10000 nM | < 100 nM | CCCS(=O)(=O)Nc1cccc(C(=O)c2c[nH]c3ncc(-c4cnc(N(C)C)nc4)cc23)c1F [P-2408, Propane-1-sulfonic acid {3-[5-(2-dimethylamino-pyrimidin-5-yl)-1H-pyrrolo[2,3-b]pyridine-3-carbonyl]-2-fluoro-phenyl}-amide]
14 | < 10 nM | – | < 100 nM | < 100 nM | > 10000 nM | < 10 nM | CCCS(=O)(=O)Nc1ccc(F)c(C(=O)c2c[nH]c3ncc(-c4ccc(OCCN5CCOCC5)nc4)cc23)c1F [P-2232, Propane-1-sulfonic acid (2,4-difluoro-3-{5-[6-(2-morpholin-4-yl-ethoxy)-pyridin-3-yl]-1H-pyrrolo[2,3-b]pyridine-3-carbonyl}-phenyl)-amide]
15 | < 10 nM | – | < 100 nM | < 100 nM | > 10000 nM | < 10 nM | CCCS(=O)(=O)Nc1ccc(F)c(C(=O)c2c[nH]c3ncc(-c4ccc(OCCN5CCCC5)nc4)cc23)c1F [P-2233, Propane-1-sulfonic acid (2,4-difluoro-3-{5-[6-(2-pyrrolidin-1-yl-ethoxy)-pyridin-3-yl]-1H-pyrrolo[2,3-b]pyridine-3-carbonyl}-phenyl)-amide]
16 | < 10 nM | > 10000 nM | < 5000 nM | < 5000 nM | > 10000 nM | – | O=C(c1c(F)ccc(NS(=O)(=O)c2cccc(F)c2)c1F)c1c[nH]c2nccc(Cl)c12 [P-2019, N-[3-(4-Chloro-1H-pyrrolo[2,3-b]pyridine-3-carbonyl)-2,4-difluoro-phenyl]-3-fluoro-benzenesulfonamide]
17 | < 10 nM | > 10000 nM | < 5000 nM | < 1000 nM | > 10000 nM | – | COc1cnc2[nH]cc(C(=O)c3c(F)ccc(NS(=O)(=O)c4ccccc4F)c3F)c2c1 [P-2009, N-[2,4-Difluoro-3-(5-methoxy-1H-pyrrolo[2,3-b]pyridine-3-carbonyl)-phenyl]-2-fluoro-benzenesulfonamide]
18 | < 100 nM | – | < 5000 nM | < 1000 nM | > 10000 nM | < 10 nM | COc1ccnc2[nH]cc(C(=O)c3c(F)ccc(NS(=O)(=O)c4ccccc4F)c3F)c12 [P-2021, N-[2,4-Difluoro-3-(4-methoxy-1H-pyrrolo[2,3-b]pyridine-3-carbonyl)-phenyl]-2-fluoro-benzenesulfonamide]
19 | < 100 nM | – | < 5000 nM | < 5000 nM | > 10000 nM | < 10 nM | Cc1cnc2[nH]cc(C(=O)c3c(F)ccc(NS(=O)(=O)c4c(F)cccc4F)c3F)c2c1 [P-2024, N-[2,4-Difluoro-3-(5-methyl-1H-pyrrolo[2,3-b]pyridine-3-carbonyl)-phenyl]-2,6-difluoro-benzenesulfonamide]
20 | < 10 nM | – | < 1000 nM | < 1000 nM | > 10000 nM | < 10 nM | CCCc1ccc(-c2cnc3[nH]cc(C(=O)c4c(F)ccc(NS(=O)(=O)CCC)c4F)c3c2)cn1 [P-2224, Propane-1-sulfonic acid {2,4-difluoro-3-[5-(6-propyl-pyridin-3-yl)-1H-pyrrolo[2,3-b]pyridine-3-carbonyl]-phenyl}-amide]
21 | < 10 nM | > 10000 nM | < 100 nM | < 100 nM | > 10000 nM | – | CCCS(=O)(=O)Nc1ccc(F)c(C(=O)c2c[nH]c3ncc(-c4ccc(S(C)(=O)=O)cc4)cc23)c1F [P-2183, Propane-1-sulfonic acid {2,4-difluoro-3-[5-(4-methanesulfonyl-phenyl)-1H-pyrrolo[2,3-b]pyridine-3-carbonyl]-phenyl}-amide]
22 | < 10 nM | – | < 1000 nM | < 1000 nM | > 10000 nM | < 10 nM | CCCS(=O)(=O)Nc1ccc(F)c(C(=O)c2c[nH]c3ncc(-c4ccc(C(=O)NCC)nc4)cc23)c1F [P-2151, 5-{3-[2,6-Difluoro-3-(propane-1-sulfonylamino)-benzoyl]-1H-pyrrolo[2,3-b]pyridin-5-yl}-pyridine-2-carboxylic acid ethylamide]

— patent publication US8198273B2, “Compounds and methods for kinase modulation, and indications therefor” (Plexxikon Inc., priority 2009, dated 2012)
